For assay [1], the target named is T1, Streptavidin-d2 and Sortilin-6His (UniProt P22629+Q99523, V650M).
T1 construct: ternary complex formation composed of streptavidin, bifunctional compound and sortilin-6his
Put plainly: TR-FRET ternary complex formation streptavidin / small molecule bifunctional compound / sortilin. Type of assay: binding. The following applies: Table 5; 5 μM-0.6 pM, […] incubation. For orientation: Time-resolved FRET reads energy transfer from a long-lived donor to a nearby acceptor.

The target of assay [2] is T2, soluble ectodomain of sortilin-6his (Homo sapiens, UniProt Q99523, V650M).
T2 construct: the soluble ectodomain of sortilin-6his is measured by microscale thermophoresis (MST)
T2 sequence (Q99523 with tags, fused parts or gaps V650M): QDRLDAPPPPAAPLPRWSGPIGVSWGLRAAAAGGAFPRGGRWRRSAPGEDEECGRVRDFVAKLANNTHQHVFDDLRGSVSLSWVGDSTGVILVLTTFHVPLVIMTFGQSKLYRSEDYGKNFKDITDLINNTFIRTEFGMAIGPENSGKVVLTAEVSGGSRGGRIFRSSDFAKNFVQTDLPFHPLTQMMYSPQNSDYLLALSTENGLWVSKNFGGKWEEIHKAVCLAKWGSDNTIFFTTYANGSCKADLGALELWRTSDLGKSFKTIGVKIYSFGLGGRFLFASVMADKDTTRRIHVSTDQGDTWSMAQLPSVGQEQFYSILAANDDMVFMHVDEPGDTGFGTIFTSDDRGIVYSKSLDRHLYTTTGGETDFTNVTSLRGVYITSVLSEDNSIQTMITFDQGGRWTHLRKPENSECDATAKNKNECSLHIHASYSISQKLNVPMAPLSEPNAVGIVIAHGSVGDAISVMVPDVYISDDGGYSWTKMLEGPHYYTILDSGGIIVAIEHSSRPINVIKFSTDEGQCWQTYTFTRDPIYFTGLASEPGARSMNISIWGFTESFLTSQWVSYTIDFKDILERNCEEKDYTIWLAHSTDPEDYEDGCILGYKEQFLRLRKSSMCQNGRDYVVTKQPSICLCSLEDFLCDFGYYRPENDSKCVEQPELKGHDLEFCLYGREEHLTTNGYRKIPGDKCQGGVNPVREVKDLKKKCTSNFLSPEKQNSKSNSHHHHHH
Nature of the assay: MST binding to soluble ectodomain of sortilin-6his. The following applies: MST, read-out: KD score, binding to sortilin (Kd).

Assay [3] relates to HEK293 cells expressing full length sortilin receptor. Nature of the assay: Cellular uptake of NA650 in HEK293/sortilin cells. Type of assay: cell-based. The conditions noted are these: Table 6; NA650 (100 nM), 3 h, biotin warhead compounds. How it is done: Cellular uptake of NA650 was investigated in HEK293 cells expressing full length sortilin receptor (Petersen et. al.). Cells were seeded in poly-L-lysine coated 96-well plates (Perkin Elmer) (40K/well) in 50 μL culture medium (DMEM (Lonza)+10% FBS (SigmaAldrich)+1% penicillin-streptomycin (SigmaAldrich)+1% GlutaMAX (Gibco)+100 μg/mL Zeocin (Invitrogen)) and incubated overnight in cell incubator (37° C., humidified, 5% CO2).
Culture medium was replaced with assay medium (DMEM (Lonza)+10% fetal bovine serum (SigmaAldrich)+1% penicillin-streptomycin (SigmaAldrich)+1% GlutaMAX (Gibco)) containing NA650 (Invitrogen) (100 nM) (Thermo Fischer) and peptidic bifunctional compounds (9.8 nM to 10 μM). Cells were incubated for 3 h in cell incubator before they were washed in dPBS (Bionordika). The DyLight650 signal in the cell layer was detected using a fluorescence plate reader (BMG Labtech Clariostar).
Cellular uptake of NA650 was investigated in HEK293 cells expressing full length sortilin receptor using a methodology analogous to example 3.

In a further assay the target is TNFa-6His (Homo sapiens, UniProt P01375). Nature of the assay: MST binding to TNFa-6his. The conditions noted are these: Table 8, NTA labeled TNFa-6His (100 nM), read-out: KD (score), Kd of TNFalpha binding. An excerpt: MST was measure analogously to example 1 using TNFa-6his.
Chain of TNFa-6His (P01375 77-233 limits assumed): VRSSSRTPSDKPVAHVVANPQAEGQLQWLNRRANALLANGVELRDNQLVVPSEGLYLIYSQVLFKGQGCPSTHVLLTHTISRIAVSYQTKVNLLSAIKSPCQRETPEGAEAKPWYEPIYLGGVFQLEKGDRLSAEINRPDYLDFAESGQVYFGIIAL
Assay [4] concerns the target streptavidin, bifunctional compound and sortilin-6his (UniProt P22629+Q99523, V650M). Nature of the assay: TR-FRET ternary complex formation streptavidin / bifunctional peptide / sortilin-6his. The following applies: Table 2; […] incubation, HTRF ratio 665/620 nm.
Method: In these experiments, the compounds of interest were titrated over 24-point in a 384-well TTP LVDS plate (SPT Labtech) to a final buffer composition of 50 mM Bis-Tris Propane pH 8, 50 mM NaCl, 0.05% Tween20, with or without 10% DMSO using a Mosquito LV pipetting robot (SPT Labtech).
The reaction was allowed to incubate for 2.5 hours at room temperature, at which point the HTRF signal ratio at 665/620 nm was determined using a plate reader (ClarioStar, BMG Labtech). All reactions were run in triplicates and data was represented as HTRF ratio as a function of bifunctional compound concentration.
Where [5] appears, read: Table 4, small molecule bifunctional compounds.

For orientation: Kd means a measure of binding affinity in units of concentration.

SMILES strings stand for the structures. Read-outs that look alike come from different tables or passages of the source. Residues, ends and D or L forms follow the SMILES beside them. *: point of attachment. Biotin = O=C1N[C@H]2[C@H](CS[C@H]2CCCCC(=O)*)N1 Where only a bound is given, the exact number is not on record here.

Regarding `CC(C)(C)CC[C@H](NC(=O)c1ccc(Oc2cccc(OCCOCCOCCOCCOCCOCCNC(=O)CCCC[C@@H]3SC[C@@H]4NC(=O)N[C@@H]43)c2)nc1)C(=O)O` (stereo in doubt) [BF025], the “AUC score, ternary complex formation” value in assay [1] is listed as “+ (AUC < 25.000)”. In addition, the dissociation constant (Kd) in assay [2] (setting [5]) lay in the range of 10 to 250 nM. Further, the “AUC score, target internalization” value in assay [3] is reported as “+ (AUC < 100)”.
For `CC(C)(C)CC[C@H](NC(=O)c1ccc(Oc2cccc(OCCOCCOCCOCCOCCOCCOCCOCCNC(=O)CCCC[C@@H]3SC[C@@H]4NC(=O)N[C@@H]43)c2)nc1)C(=O)O` [BF017, (2S)-2-[[6-[3-[2-[2-[2-[2-[2-[2-[2-[2-[5-[(3aS,4S,6aR)-2-oxo-1,3,3a,4,6,6a-hexahydrothieno[3,4-d]imidazol-4-yl]pentanoylamino]ethoxy]ethoxy]ethoxy]ethoxy]ethoxy]ethoxy]ethoxy]ethoxy]phenoxy]pyridine-3-carbonyl]amino]-5,5-dimethyl-hexanoic acid] the same measures were “+ (AUC < 25.000)”, 1 to 10 nM and “++ (AUC > 100)”.
`CC(C)(C)CC[C@H](NC(=O)c1ccc(Oc2cccc(OCCOCCOCCOCCOCCOCCOCCNC(=O)CCCC[C@@H]3SC[C@@H]4NC(=O)N[C@@H]43)c2)nc1)C(=O)O` [BF019, (2S)-2-[[6-[3-[2-[2-[2-[2-[2-[2-[2-[5-[(3aS,4S,6aR)-2-oxo-1,3,3a,4,6,6a-hexahydrothieno[3,4-d]imidazol-4-yl]pentanoyl-amino]ethoxy]ethoxy]ethoxy]ethoxy]ethoxy]ethoxy]ethoxy]phenoxy]pyridine-3-carbonyl]amino]-5,5-dimethyl-hexanoic acid]: the “AUC score, ternary complex formation” value in assay [1] is “+ (AUC < 25.000)”. Moreover, the dissociation constant Kd in assay [2] (setting [5]) lay in the range of 1 to 10 nM. The “AUC score, target internalization” value in assay [3] is recorded as “+ (AUC < 100)”.
Take `CC(C)(C)CC[C@H](NC(=O)c1ccc(Oc2cccc3c(C(=O)NCCCNC(=O)CCOCCOCCOCCOCCNC(=O)CCCC[C@@H]4SC[C@@H]5NC(=O)N[C@@H]54)cccc23)nc1)C(=O)O` [BF020, (2S)-2-[[6-[[5-[3-[3-[2-[2-[2-[2-[5-[(3aS,4S,6aR)-2-oxo-1,3,3a,4,6,6a-hexahydrothieno[3,4-d]imidazol-4-yl]pentanoylamino]ethoxy]ethoxy]ethoxy]ethoxy]propanoylamino]propylcarbamoyl]-1-naphthyl]oxy]pyridine-3-carbonyl]amino]-5,5-dimethyl-hexanoic acid]: the “AUC score, ternary complex formation” value in assay [1] was “++ (AUC > 25.000)”. The Kd in assay [2] (setting [5]) is 10 to 250 nM. For the same compound, the “AUC score, target internalization” value in assay [3] is “++ (AUC > 100)”.
For `CC(C)(C)CC[C@H](NC(=O)c1ccc(Oc2cccc(C(=O)NCCOCCOCCOCCOCCOCCOCCNC(=O)CCCC[C@@H]3SC[C@@H]4NC(=O)N[C@@H]43)c2)nc1)C(=O)O` [BF023, (2S)-2-[[6-[3-[2-[2-[2-[2-[2-[2-[2-[5-[(3aS,4S,6aR)-2-oxo-1,3,3a,4,6,6a-hexahydrothieno[3,4-d]imidazol-4-yl]pentanoylamino]ethoxy]ethoxy]ethoxy]ethoxy]ethoxy]ethoxy]ethylcarbamoyl]phenoxy]pyridine-3-carbonyl]amino]-5,5-dimethyl-hexanoic acid] the same measures were “+ (AUC < 25.000)”, 10 to 250 nM and “+ (AUC < 100)”.
For `CC(C)(C)CC[C@H](NC(=O)c1ccc(Oc2cccc(OCCOCCOCCOCCOCCOCCOCCOCCOCCNC(=O)CCCC[C@@H]3SC[C@@H]4NC(=O)N[C@@H]43)c2)nc1)C(=O)O` [BF026, (2S)-2-[[6-[3-[2-[2-[2-[2-[2-[2-[2-[2-[2-[5-[(3aS,4S,6aR)-2-oxo-1,3,3a,4,6,6a-hexahydrothieno[3,4-d]imidazol-4-yl]pentanoylamino]ethoxy]ethoxy]ethoxy]ethoxy]ethoxy]ethoxy]ethoxy]ethoxy]ethoxy]phenoxy]pyridine-3-carbonyl]amino]-5,5-dimethyl-hexanoic acid] the same measures were “++ (AUC > 25.000)”, 10 to 250 nM and “++ (AUC > 100)”.
On to `Cc1nc2cc(F)c(-c3cnc(OCCCCCn4cc(COCCOCCOCCOCCNC(=O)c5ccc(Oc6cccc(OCC(=O)N[C@@H](CCC(C)(C)C)C(=O)O)c6)nc5)nn4)nc3)nc2c(N[C@H](C)c2cc(C#N)ccc2F)c1Cl` [BF076], for which the values for the dissociation constant Kd (in assay [2] (setting [5]); at TNFa-6His) were 10 to 250 nM and below 2000 nM, respectively.
On to `Cc1nc2cc(F)c(-c3cnc(OCCOCCOCCOCCOCCOCCOCCNC(=O)c4ccc(Oc5cccc(OCC(=O)N[C@@H](CCC(C)(C)C)C(=O)O)c5)nc4)nc3)nc2c(N[C@H](C)c2cc(C#N)ccc2F)c1Cl` [BF079], for which the Kd on TNFa-6His is below 2000 nM.
Take `Cc1cc(-c2ccc(OCC(=O)NCCOCCOCc3cn(CCCCCOc4ncc(-c5nc6c(N[C@@H](C)c7cc(C#N)ccc7F)c(Cl)c(C)nc6cc5F)cn4)nn3)cc2)cc(NC(=O)c2ccc(C(F)(F)F)cc2C(=O)O)n1` [BF080]: the equilibrium dissociation constant (Kd) in assay [2] (setting [5]) is below 1 nM; on TNFa-6His, below 2000 nM.
For `C[C@@H]1CN(c2ncc(-c3ccc4c(n3)N(Cc3cccnc3C#N)C(C)(C)C4=O)cn2)CCN1C(=O)CNC(=O)CCCCCCCCCCn1cc(-c2cccc(Oc3ccc(C(=O)N[C@@H](CCC(C)(C)C)C(=O)O)cn3)c2)nn1` [BF081, (2S)-2-[[6-[3-[1-[11-[[2-[(2R)-4-[5-[1-[(2-cyano-3-pyridyl)methyl]-2,2-dimethyl-3-oxo-pyrrolo[2,3-b]pyridin-6-yl]pyrimidin-2-yl]-2-methyl-piperazin-1-yl]-2-oxo-ethyl]amino]-11-oxo-undecyl]triazol-4-yl]phenoxy]pyridine-3-carbonyl]amino]-5,5-dimethyl-hexanoic acid] the same measures were 1 to 10 nM and below 2000 nM.
`C[C@@H]1CN(c2ncc(-c3ccc4c(n3)N(Cc3cccnc3C#N)C(C)(C)C4=O)cn2)CCN1C(=O)CNC(=O)COCCOCCOCCOCCOc1cccc(Oc2ccc(C(=O)N[C@@H](CCC(C)(C)C)C(=O)O)cn2)c1` [BF082]: the dissociation constant (Kd) in assay [2] (setting [5]) is 1 to 10 nM; at TNFa-6His, above 2000 nM.
On to `C[C@@H]1CN(c2ncc(-c3ccc4c(n3)N(Cc3cccnc3C#N)C(C)(C)C4=O)cn2)CCN1C(=O)CNC(=O)CCCCCOCCOCCNC(=O)c1cccc(Oc2ccc(C(=O)N[C@@H](CCC(C)(C)C)C(=O)O)cn2)c1` [BF0100], for which the Kd on TNFa-6His was below 2000 nM.
Turning to `CC(C)C[C@H](NC(=O)[C@H](CC(C)C)NC(=O)[C@H](CCC(N)=O)NC(=O)[C@H](CCCNC(=N)N)NC(=O)CNC(=O)CNC(=O)CNC(=O)[C@H](CO)NC(=O)CNC(=O)CNC(=O)CNC(=O)CNC(=O)[C@H](CO)NC(=O)CNC(=O)CNC(=O)CCCC[C@@H]1SC[C@@H]2NC(=O)N[C@@H]21)C(=O)O` [compound 149] (Biotin-GGSGGGGSGGGRQLL-OH), the “AUC score, TR-FRET measurements of ternary complex formation” value in assay [4] was “+ (AUC < 5000)”. For the same compound, the equilibrium dissociation constant (Kd) in assay [2] (Table 1, biotin-linker-peptide bifunctional compounds) lay in the range of 100 to 2000 nM.

The values are drawn from patent US20250345446A1 (Draupnir Bio ApS, priority 2022, published 2025).
